In PubChem BioAssay AID623930 (Southern Research Specialized Biocontainment Screening …, 2012):
Active and inactive are the calls of the source.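 Rule for the calls: active = viability below 70% at one or more concentrations in every replicate; inactive = viability above 70% at all doses, or replicates disagree.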

Key:
[1] = test system: Vero E6 viability, CellTiter-Glo luminescence, 96 h; assay: Vero E6 cell cytotoxicity, SAR follow-up, cytotoxicity control for West Nile virus antiviral project, synthesized analogs, extended characterization 2 (AID 623930)
[2] = as above; details: Vero E6 viability, CellTiter-Glo luminescence, 96 h; at 100 µM (top of the series)

SMILES | CC50 [1] [µM] | viability [2]
O=C(CSc1nc2ccccc2c(=O)n1-c1cc(F)cc(F)c1)Nc1nc(-c2ccccc2)cs1 | 82.9 | 
O=C(CSc1nc2c(F)cccc2c(=O)n1-c1ccc(Cl)c(Cl)c1)Nc1ccc2c(c1)CCC2 | 34.5 | 
N#Cc1ccc(-n2c(SCC(=O)Nc3nc(-c4ccccc4)cs3)nc3ccccc3c2=O)cc1F |  | 78.4% (inactive)
O=C(CSc1nc2ccccc2c(=O)n1-c1ccc(Cl)c(Cl)c1)Nc1ccc2c(c1)CCC2 |  | 75.2% (inactive)
O=C(CSc1nc2ccccc2c(=O)n1-c1c(Cl)cccc1Cl)Nc1nc(-c2ccccc2)cs1 | 52.6 | 
O=C(CSc1nc2c(F)cccc2c(=O)n1-c1cc(Cl)cc(Cl)c1)Nc1nc(-c2ccccc2)cs1 |  | 76% (inactive)
Cc1cc(-n2c(SCC(=O)Nc3nc(-c4ccccc4)cs3)nc3ccccc3c2=O)ccc1F | 87.8 | 
O=C(CSc1nc2c(F)cccc2c(=O)n1-c1ccc(Cl)c(Cl)c1)Nc1nc(-c2ccccc2)cs1 |  | 73.3% (inactive)
O=C(CSc1nc2ccccc2c(=O)n1-c1ccc(Cl)c(F)c1)c1nc(-c2ccccc2)cs1 |  | 72% (inactive)
O=C(CSc1nc2ccccc2c(=O)n1-c1c(Cl)cccc1Cl)Nc1ccc2c(c1)CCC2 |  | 74.6% (inactive)
O=C(CSc1nc2cccc(F)c2c(=O)n1-c1ccc(Cl)c(Cl)c1)Nc1ccc2c(c1)CCC2 |  | 71.9% (inactive)
O=C(CSc1nc2c(F)cccc2c(=O)n1-c1cc(Cl)cc(Cl)c1)Nc1ccc2c(c1)CCC2 | 77 | 
O=C(CSc1nc2c(Cl)cccc2c(=O)n1-c1cc(Cl)cc(Cl)c1)Nc1ccc2c(c1)CCC2 | 72.2 | 
